Results on 8 substances are retold here after patent US8987193B2, “Nisin derivatives and the use thereof” (University College Cork—National University of Ireland, Cork, priority 2008, dated 2015).

Entries after “also recorded” stand apart in the source; their conditions may differ. Ends that are not written are not given here.

In assay [1] the test system is L. monocytogenes CBC1. Description: Deferred antagonism assay. It is filed as cell-based, Listeria monocytogenes. More on the design: key: + = Enhanced bioactivity relative to control; − = Bioactivity equal to or less than control; NA = no activity evident. The conditions noted are these: L. mono CBC1; XX and XXX hinge mutant producers. Here is the method: (§1) Deferred antagonism assays were performed by replicating strains on GM17 or GM17 x-gal agar plates and allowing them to grow overnight before overlaying with either GM17/BHI/TS/MH agar (0.75% w/v agar) seeded with the appropriate indicator strain. Zone size was calculated as the diameter of the zone of clearing minus the diameter of bacterial growth (5 mm) For higher throughput screening of N20PXX, XM21VX, XXK22T and XXX banks deferred antagonism assays were performed by replicating strains using a 96 pin replicator (Boekel) or spotting 5 μl of a fresh overnight culture on GM17 agar plates and allowing them to grow overnight. […] Additional sets of indicators were employed to further assess/reassess the bioactivity of a number of strains. […] For well-diffusion assays molten agar was cooled to 48° C. and seeded with the appropriate indicator strain. The inoculated medium was rapidly transferred into sterile Petri plates in 50 ml volumes, allowed to solidify and dried. Wells (4.6 mm in diameter) were then made in the seeded plates. Purified nisin and mutant nisins were resuspended in 0.005% acetic acid, serially diluted, 50 μl volumes were dispensed into the aforementioned wells and the plates incubated at 37° C. overnight. Bioactivity was expressed as arbitrary units/ml (AU/ml) and calculated as the reciprocal of the highest dilution that gave a definite zone multiplied by the conversion factor (i.e. 20 when 50 μl was used) (Ryan et al., 1996).
(§2) As a consequence of the enhanced activities of K22T and K22S, a more in-depth investigation of this region was carried out. Saturation mutagenesis was undertaken to create a bank of nisin A hinge derivatives containing the vast majority of possible amino acid substitutions for each position. Although pPTPL was used successfully for random mutagenesis, its relatively large size of approx 10.5 kb was considered unsuitable for the complete plasmid PCR amplification approach utilized for saturation mutagenesis. A smaller (approx 6 kb) E. coli-L. lactis shuttle vector pCI372 was considered to be potentially more useful. Its suitability with respect to the in trans expression of nisA was confirmed by the ability of pDFO5 to restore the nisin positive phenotype. Saturation mutagenesis was performed on each codon using pDF05 and oligonucleotides (Table 5) that replace the specific codon with a NNK triplet, potentially encoding all 20 standard amino acids. Following complete plasmid amplification and introduction into the intermediate Top10 host, sequence analysis of a pooled bank of pDF05 derivatives confirmed randomization. Introduction of these variants into L. lactis NZ9800 allowed the expression of mutant nisin A peptides for further analysis. […] 46 residue conversions were isolated. All strains, regardless of bioactivity, were assessed with a view to comprehensively assessing the consequences of each individual hinge alteration.

Assay [2] concerns L. monocytogenes CBC2. The assay is described as follows: Deferred antagonism assay. Type of assay: cell-based, Listeria monocytogenes. More on the design: key: + = Enhanced bioactivity relative to control; − = Bioactivity equal to or less than control; NA = no activity evident. The note with it: L. mono CBC2; XX and XXX hinge mutant producers. Here is the method:
as §1, §2

The test system of assay [3] is L. monocytogenes CBC3. Description: Deferred antagonism assay. Type of assay: cell-based, Listeria monocytogenes. More on the design: key: + = Enhanced bioactivity relative to control; − = Bioactivity equal to or less than control; NA = no activity evident. The conditions noted are these: L. mono CBC3; XX and XXX hinge mutant producers. As for the experimental part:
as §1, §2

Assay [4] concerns L. lactis CBC7. Description: Deferred antagonism assay. Type of assay: cell-based. More on the design: key: + = Enhanced bioactivity relative to control; − = Bioactivity equal to or less than control; NA = no activity evident. The conditions noted are these: XX and XXX hinge mutant producers. Here is the method: as §1, §2
The test system of assay [5] is L. lactis CBC8. The assay is described as follows: Deferred antagonism assay. Type of assay: cell-based. More on the design: key: + = Enhanced bioactivity relative to control; − = Bioactivity equal to or less than control; NA = no activity evident. The note with it: XX and XXX hinge mutant producers. As for the experimental part: as §1, §2
For assay [6], the system named is S. aureus CBC4. The assay is described as follows: Deferred antagonism assay. More on the design: key: + = Enhanced bioactivity relative to control; − = Bioactivity equal to or less than control; NA = no activity evident. It is filed as cell-based. The conditions noted are these: XX and XXX hinge mutant producers. As for the experimental part: as §1, §2
The subject of assay [7] is L. plantarum CBC6. Description: Deferred antagonism assay. More on the design: key: + = Enhanced bioactivity relative to control; − = Bioactivity equal to or less than control; NA = no activity evident. The conditions noted are these: XX and XXX hinge mutant producers. It is filed as cell-based, Lactobacillus plantarum. As for the experimental part:
as §1, §2

Assay [8] deals with indicator strains. Description: Deferred antagonism assays, various indicator strains (summary). Type of assay: cell-based. The conditions noted are these: for Target strain against which the hinge mutant was selected for enhanced bioactivity: XX and XXX banks, L. lactis HP*: enhanced or equal; for Target strain against which the hinge mutant was selected for enhanced bioactivity / Strain(s) against which the derivative (producing strain) displays enhanced bioactivity: relative to nisin A-producing control; for number of targets with enhanced activity: of the 8 additional targets tested; for Strain(s) against which the derivative (producing strain) displays enhanced bioactivity: value = strains listed. Here is the method: as §1

With “NisinA HLT (ITSISLCTPGCKTGALMGCHLTTATCHCSIHVSK; cysteine pairing not given here; also: lantibiotic nisin-A; UniProt P13068 24-57, looked up, variant N20H M21L K22T) [nisin A hinge variant HLT (i.e. N20H, M21L, K22T)]”, the “bioactivity relative to a nisin A-producing control” value was “−” in assay [1]; “+” in assay [2]; “+” in assay [3]; “+” in assay [4]; “−” in assay [5]; “+” in assay [6]. In addition, the “bioactivity relative to a nisin A-producing control” value in assay [7] was “−”. The “Target strain against which the hinge mutant was selected for enhanced bioactivity” value in assay [8] is “Strep. agalactiae ATCC 13813”. The “number of targets with enhanced activity” value in assay [8] is 4. Further, in assay [8], the “Strain(s) against which the derivative (producing strain) displays enhanced bioactivity” value (from here on “Strain(s) against which the derivative”) is “S. agalactiae ATCC13813, L. monocytogenes CBC2 and CBC3, S. aureus CBC4 and L. lactis CBC7; also recorded: S. agalactiae ATCC13813, L. mono CBC2, CBC3, S. aureus”.
For NisinA PAA, the “bioactivity relative to a nisin A-producing control” value in assay [1] is “−”; in assay [2], “−”; in assay [3], “−”; in assay [4], “−”; in assay [5], “−”; in assay [6] it was “+”. Further, the “bioactivity relative to a nisin A-producing control” value in assay [7] was “−”. The “Target strain against which the hinge mutant was selected for enhanced bioactivity” value in assay [8] is on record as “C. sporogenes UCC1”. The “Strain(s) against which the derivative” value in assay [8] is “C. sporogenes UCC1 and S. aureus CBC4”.
For NisinA PAK, the “bioactivity relative to a nisin A-producing control” value in assay [1] was “−”; in assay [2] it was “−”; in assay [3], “−”; in assay [4], “−”; in assay [5], “−”; in assay [6], “+”. Moreover, the “bioactivity relative to a nisin A-producing control” value in assay [7] is recorded as “−”. In assay [8], the “Target strain against which the hinge mutant was selected for enhanced bioactivity” value is “Staph. aureus RF122/L. lactis HP*”. In assay [8] (of the 16 strains tested), the “number of strains with bioactivity” value came out at 7. Also, in assay [8], the “Strain(s) against which the derivative” value was “S. aureus RF122 , CBC4 , NCDO1499 and DPC5246, L. lactis MG1363 , and L. monocytogenes 10403S and EGDe; also recorded: DPC5246, NCDO1499, L. mono 10403S and EGDe”.
Turning to “NisinA PAL (ITSISLCTPGCKTGALMGCPALTATCHCSIHVSK; not fully specified (bridges); also: lantibiotic nisin-A: lanthionine rings and dehydrated residues, places not given here; UniProt P13068 24-57, looked up, variant N20P M21A K22L) [nisin A hinge variant PAL (i.e. N20P, M21A, K22L)]”, the “bioactivity relative to a nisin A-producing control” value in assay [1] is reported as “−”; in assay [2] it was “+”; in assay [3] it was “−”; in assay [4], “+”; in assay [5], “+”; in assay [6], “+”. In addition, in assay [7], the “bioactivity relative to a nisin A-producing control” value is on record as “−”. Further, in assay [8], the “Target strain against which the hinge mutant was selected for enhanced bioactivity” value was “C. sporogenes UCC1”. For the same substance, the “number of targets with enhanced activity” value in assay [8] was found to be 4. The “Strain(s) against which the derivative” value in assay [8] was “C. sporogenes UCC1, S. aureus CBC4, L. lactis CBC7 and CBC8, L. monocytogenes CBC2 and an additional 10 L. monocytogenes and 2 L. innocua; also recorded: C. sporogenes UCC1, L. mono CBC2, S. aureus CBC4, L. lactis”.
For “NisinA PAT (ITSISLCTPGCKTGALMGCPATTATCHCSIHVSK; not fully specified (bridges); also: lantibiotic nisin-A: lanthionine rings and dehydrated residues, places not given here; UniProt P13068 24-57, looked up, variant N20P M21A K22T) [nisin A hinge variant PAT (i.e. N20P, M21A, K22T)]”, the “bioactivity relative to a nisin A-producing control” value in assay [1], in assay [2], in assay [3], in assay [4], in assay [5] and in assay [6] was “−” each time. The “bioactivity relative to a nisin A-producing control” value in assay [7] is “−”. For the same substance, the “Target strain against which the hinge mutant was selected for enhanced bioactivity” value in assay [8] is given as “Strep. agalactiae ATCC 13813”. In addition, the “Strain(s) against which the derivative” value in assay [8] is listed as “S. agalactiae ATCC13813”.
In the case of NisinA PIA, the “bioactivity relative to a nisin A-producing control” value in assay [1], in assay [2], in assay [3], in assay [4], in assay [5] and in assay [6] was “−” each time. In addition, the “bioactivity relative to a nisin A-producing control” value in assay [7] is given as “−”. Besides, in assay [8], the “Target strain against which the hinge mutant was selected for enhanced bioactivity” value is reported as “Staph. aureus RF122”. The “Strain(s) against which the derivative” value in assay [8] is recorded as “B. cereus UCC1”.
As to NisinA PIM, the “bioactivity relative to a nisin A-producing control” value in assay [1], in assay [2], in assay [3], in assay [4], in assay [5] and in assay [6] was “−” throughout. In addition, the “bioactivity relative to a nisin A-producing control” value in assay [7] is given as “−”. For the same substance, in assay [8], the “Target strain against which the hinge mutant was selected for enhanced bioactivity” value is “Staph. aureus RF122”. In assay [8], the “Strain(s) against which the derivative” value was “B. cereus UCC1”.
Take “NisinA PLA (ITSISLCTPGCKTGALMGCPLATATCHCSIHVSK; not fully specified (bridges); also: lantibiotic nisin-A: lanthionine rings and dehydrated residues, places not given here; UniProt P13068 24-57, looked up, variant N20P M21L K22A) [nisin A hinge variant PLA (i.e. N20P, M21L, K22A)]”: the “bioactivity relative to a nisin A-producing control” value in assay [1] is given as “−”; in assay [2] it was “−”; in assay [3], “−”; in assay [4] it was “−”; in assay [5], “−”; in assay [6], “+”. The “bioactivity relative to a nisin A-producing control” value in assay [7] was “−”. The “Target strain against which the hinge mutant was selected for enhanced bioactivity” value in assay [8] is recorded as “B. cereus UCC1”. Besides, in assay [8], the “Strain(s) against which the derivative” value is “B. cereus UCC1 and S. aureus CBC4”.
